Laboratory results reported in patent US20140303144A1, “COMPOUNDS AND METHODS OF TREATING HYPERTENSION” (Medivation Technologies, Inc., priority 2011, published 2014).

Assays:
[1] = target: T1, human recombinant adrenergic α1D receptor (Homo sapiens, UniProt P25100); experiment: Adrenergic α1D radioligand binding assay ([3H]Prazosin); conditions: 0.1 μM compound; read-out: Percentage inhibition of ligand binding, Adrenergic α1D
T1 construct: expressed in transfected cells; host or cells: HEK-293 cells
T1 sequence (P25100 1-572): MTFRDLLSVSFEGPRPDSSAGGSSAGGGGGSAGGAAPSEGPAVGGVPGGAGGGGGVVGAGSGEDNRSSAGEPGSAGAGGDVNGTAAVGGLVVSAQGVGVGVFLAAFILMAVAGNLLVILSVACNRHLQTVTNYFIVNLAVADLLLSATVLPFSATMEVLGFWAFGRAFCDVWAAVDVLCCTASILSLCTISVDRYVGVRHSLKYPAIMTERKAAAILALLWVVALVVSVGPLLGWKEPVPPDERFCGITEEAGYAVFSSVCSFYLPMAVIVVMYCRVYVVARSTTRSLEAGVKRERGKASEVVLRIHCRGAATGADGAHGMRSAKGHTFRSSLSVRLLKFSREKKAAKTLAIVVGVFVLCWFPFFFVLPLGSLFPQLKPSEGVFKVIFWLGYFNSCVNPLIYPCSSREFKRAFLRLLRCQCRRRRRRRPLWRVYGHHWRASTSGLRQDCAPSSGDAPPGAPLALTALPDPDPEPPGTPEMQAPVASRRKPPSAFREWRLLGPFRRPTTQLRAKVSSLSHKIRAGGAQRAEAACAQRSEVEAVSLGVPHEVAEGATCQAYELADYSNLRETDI
Method: To evaluate in radioligand binding assays the activity of compounds of the invention, human recombinant adrenergic α1D receptor expressed in human embryonic kidney (HEK-293) cells (Kenny, B. et al, Br. J. Pharmacol. 115(6):981, 1995) in a 50 mM Tris-HCl buffer, pH 7.4, was used. Compounds were incubated with 0.6 nM [3H]Prazosin for 60 min at 25° C. Non-specific binding was estimated in the presence of 10 μM phentolamine. Receptor proteins were filtered and washed, the filters were then counted to determine [3H]Prazosin specifically bound. Compounds were screened at 1 μM or lower, using 1% DMSO as vehicle. Biochemical assay results are presented as the percent inhibition of specific binding in Tables B1A-B1D.

[2] = test system: SH-SY5Y cells; experiment: Cell viability assay (MTS reduction) against 4-Br-A23187 challenge; assay type: cell-based; conditions: Homo sapiens, SH-SY5Y, compound 10 nM, 4-Br-A23187 (2 μM) for 24 h, Control = 100, Vehicle = 0, read-out: Relative Cytoprotective capacity
Method: SH-SY5Y cells cultured in DMEM/F12 media supplemented with 10% FBS were seeded in 96-well microplates at 150,000 cells/cm^2. After 24 h, cells were depleted from FBS and kept in culture for 24 h before the experiment. A stock solution was prepared by dissolving the calcium ionophore 4-Br-A23187 (Calbiochem Cat. N^o 100107) in DMSO at 25 mM. Cells were then treated with 4-Br-A23187 (2 μM), hydrogen peroxide (300 μM) or the mitochondrial toxin rotenone (25 μM) in the presence of vehicle or Compound of the Invention for 24 h. Cell death was determined by measurements of LDH release according to the Cytotoxicity Detection KitPlus (Roche, Mannheim, Germany). Cell viability was determined by measuring the capacity of cells to metabolize MTS tetrazolium (MTS) according to the Cytotoxicity Detection KitPlus (Roche, Mannheim, Germany) and MTS reduction was assessed by the CellTiter 96® AQueous One Solution Cell Proliferation assay (Promega Corporation, Madison, Wis., USA). Compounds were screened at 10 nM, using DMSO as vehicle. Assay results for the experiments with Br-A23187 were presented as the MTS reduction capacity (cell viability) of untreated cells (control), 4-Br-A23187-treated cells (vehicle), and co-incubation of Br-A23187 with Compounds of the Invention treated cells and using […] (FCCP) at 10 μM for 30 min as a control. This assay assesses the ability of the test compounds to protect against cell death that was mediated by mitochondrial dysfunction. In the assay, the calcium ionophore 4-Br-A23187 was used to challenge the cells, causing calcium levels to rise in mitochondria, which leads to depolarization and cell death. Test compounds were assessed for their ability to prevent cell death in response to challenge with 4-Br-A23187.

SMILES | inhibition at 0.1 µM [1] [%] | viability at 0.01 µM [2] [%]
Cc1cc(C#Cc2ccc(C)nc2)c2c(c1)c1c(n2C)CCN(C)C1 [A12] | 38 | 35.7
Cc1cc(/C=C/c2ccc(C)nc2)c2c(c1)c1c(n2C)CCN(C)C1 [A14] | -9 | –
Cc1cc2c3c(c1)c1c(n3CC(C)(c3ccc(C)nc3)OC(C)C2)CCN(C)C1 (stereo not shown) [B160] | 15 | –
Cc1cc2c3c(c1)c1c(n3C[C@@](C)(c3ccncc3)O[C@H]2C)CCN(C)C1 [B162] | -2 | –
Cc1cc(-c2ccc(F)cc2)c2c(c1)c1c(n2C)CCN(C)C1 [A7] | 4 | –
Cc1cc(C#Cc2ccncc2)c2c(c1)c1c(n2C)CCN(C)C1 [A17] | -5 | 10.8
Cc1cc2c3c(c1)c1c(n3C[C@](C)(c3ccncc3)O[C@H]2C)CCN(C)C1 [B163] | 15 | –
Cc1cc(C#Cc2cccs2)c2[nH]c3c(c2c1)CN(C)CC3 [A8] | 3 | –
Cc1ccc2c(c1)c1c3n2CC(c2ccncc2)=CCC3(C)CN(C)C1 (stereo not shown) [D11] | -5 | 30.3
Cc1cc(CCc2ccc(C)nc2)c2c(c1)c1c(n2C)CCN(C)C1 [A13] | 8 | 19.7
Cc1cc2c3c(c1)c1c(n3CC(C)(c3ccncc3)OC(C)C2)CCN(C)C1 (stereo not shown) [B165] | 0 | –
C/C(=C\c1cc(C)cc2c3c(n(C)c12)CCN(C)C3)c1ccncc1 [A11] | -1 | 37.6
Cc1cc2c3c(c1)c1c(n3C(c3ccccc3)C2)CCN(C)C1 (stereo not shown) [B12] | 28 | –
Cc1ccc2c(c1)c1c3n2C(c2ccccc2)CCC3(C)CN(C)C1 (stereo not shown) [D12] | -3 | 32.5
Cc1ccc2c(c1)c1c3n2C(c2ccccc2)=CCC3(C)CN(C)C1 (stereo not shown) [D10] | -6 | –
C/C(=C\c1cc(C)cc2c3c(n(C)c12)CCN(C)C3)c1ccc(C)nc1 [A15] | 5 | –
Cc1cc(C#Cc2nccs2)c2[nH]c3c(c2c1)CN(C)CC3 [A16] | -2 | –
Cc1ccc(C#Cc2cc(Cl)cc3c4c(n(C)c23)CCN(C)C4)cn1 [A18] | 34 | 26
Cc1cc(-c2ccncc2)c2c(c1)c1c(n2C)CCN(C)C1 [A9] | -1 | 15.8
C#Cc1cc(C)cc2c3c(n(C)c12)CCN(C)C3 [A10] | 26 | –
